Experimental data as given in article PMC8637440, “Structural Modifications Yield Novel Insights Into the Intriguing Pharmacodynamic Potential of Anti-inflammatory Nitro-Fatty Acids” (Frontiers in Pharmacology, 2021).

Columns and labels:
[1] = target: T1, recombinant firefly luciferase (Photinus pyralis, UniProt P08659); assay: Firefly luciferase activity assay; type: biochemical; conditions: 15 min at 37°C
T1 construct: purchased Sigma-Aldrich
Procedure: Recombinant firefly luciferase (Sigma-Aldrich, St. Louis, Missouri, United States) was diluted to 10^4 U/mg in 1× PBS (phosphate buffered saline) and subsequently incubated with NFA or the substances of interest for 15 min at 37°C. Afterwards, 50 µl per reaction mix was transferred into a white 96-well plate, to which 50 µl/well Dual-Glo® (Promega, Madison, Wisconsin, United States) was added and incubated for another 10 min at 37°C. Luminescence was analyzed with a plate reader.
Suppl. Figure 1: Fatty acids interfere with firefly luciferase making the luc-based assays not suitable for analysis of signaling pathways modulated by NFA. 10 4 units of firefly luciferase were incubated with 1 µM and 10 µM OA or NFA with different carbon chain length (A) and Michael acceptor position (B) for 15 min at 37°C. Firefly activity is presented as percentage of vehicle control (DMSO) mean + SD, n=5. Compared to vehicle control statistical significance was calculated by one-way ANOVA with Bonferroni post-test. P-values of **P ≦0.0021, **** P ≦0.0001 are considered significant. DMSO, dimethyl sulfoxide; 9NOA, 9-nitro oleic acid; NFA, nitro-fatty acids, OA, oleic acid. […]

Nrf-2 = Nrf-2 induction in HCT-116 cells (Western blot and ELISA); type: cell-based, human; conditions: 10 µM, 4 h, HCT-116, Western blot and ELISA
Procedure: The Nrf-2 and NF-κB transcription factors in the nuclear extracts were detected using an Nrf-2 Transcription Assay Kit (Cayman Chemical, # 600590) and NF-κB (p65 and p50) Transcription Factor Assay Kit (Cayman Chemical, # 10007889 and # 10006912). Prior to assay performance, the nuclear extracts were generated using a Nuclear Extraction Kit (Cayman Chemical, # 10009277). The assay was performed according to the manufacturer’s instructions. For all kits, the nuclear extracts were incubated overnight at 4°C. Development was carried out for 15–20 min or until the wells turned medium to dark blue. Five minutes after the stop solution had been added, the absorbance was read at 450 nm using a plate reader.
HCT-116 and A549 cells were washed with 1× PBS, and cell extracts were generated using a Nuclear Extraction Kit (Cayman Chemical, #10009277) according to the manufacturer’s instructions, whereas whole-cell lysates were obtained using SDS lysis buffer (55.5 mM Tris-HCl pH 6.8, 2.2% SDS, 9% glycerol supplemented with protease (cOmplete® Protease Inhibitor Cocktail, Roche, Mannheim, Germany) and phosphatase (PhosStop® Easy Pack, Roche, Mannheim, Germany) inhibitors. Protein concentrations from the nuclear and cytosolic fractions were determined with a bicinchoninic acid (BCA) protein assay kit (Pierce™, Rockford, Illinois, United States). Cytoplasmic and nuclear extracts (100 µg each) and 30 µg whole-cell lysates were diluted in 5× Laemmli loading dye and denatured for 10 min at 95°C, loaded on a 10% SDS polyacrylamide gel, and separated by gel electrophoresis for 15 min at 80 V followed by 60 min at 120 V. The separated proteins were blotted onto a nitrocellulose membrane (Hybond-C Extra, Amersham Biosciences Ltd., UK) using the Mini Trans-Blot® module (Bio-Rad, Hercules, California, United States) for 90 min at 90 V. The membrane was blocked with Odyssey blocking buffer (Li-Cor Biosciences, Bad Homburg, Germany) or 5% milk powder in TBS-T (Tris Buffered Saline with 0.1% Tween) for 1 h at room temperature (RT). The membranes were incubated with the primary antibodies overnight at 4°C, and then with the secondary antibodies for 1 h at RT. The primary antibodies were diluted 1:1,000 and the secondary antibodies were diluted 1:10,000 to 1:20,000. […]
FIGURE 2 Effects of NFA on Nrf-2 expression in colorectal cancer cells. HCT-116 cells were treated with 10 µM NFA and tBHQ and/or MMF for 4 h, and Nrf-2 levels were analyzed by western blotting and ELISA. […] (B) Nrf-2 expression levels were evaluated with an ELISA after incubation with NFA with different carbon chain lengths and Michael acceptor positions. […]

sEH = target: T2, sEH (Homo sapiens, UniProt P34913); type: biochemical; set-up: purchased Cayman Chemicals #10011671; conditions: 100 nM
T2 sequence (P34913 1-555): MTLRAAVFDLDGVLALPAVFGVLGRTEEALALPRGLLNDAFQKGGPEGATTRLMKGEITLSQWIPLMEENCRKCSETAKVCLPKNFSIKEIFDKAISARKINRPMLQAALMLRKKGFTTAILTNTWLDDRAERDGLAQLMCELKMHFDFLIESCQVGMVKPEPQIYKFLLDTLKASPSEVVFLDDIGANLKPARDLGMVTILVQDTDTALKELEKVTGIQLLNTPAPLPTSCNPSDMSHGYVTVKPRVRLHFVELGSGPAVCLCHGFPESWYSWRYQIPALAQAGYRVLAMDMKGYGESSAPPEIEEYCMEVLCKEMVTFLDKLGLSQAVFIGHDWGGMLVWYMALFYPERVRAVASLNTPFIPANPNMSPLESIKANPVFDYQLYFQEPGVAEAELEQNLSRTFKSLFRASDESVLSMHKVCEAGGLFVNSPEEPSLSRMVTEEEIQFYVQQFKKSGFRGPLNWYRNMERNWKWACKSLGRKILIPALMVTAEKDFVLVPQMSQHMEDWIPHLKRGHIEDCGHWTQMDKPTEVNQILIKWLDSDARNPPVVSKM
Procedure: FIGURE 3 Effects of NFA on sEH activity. […] Data are the mean ± SEM of n = 3–7. […] The cells were lysed, and hydrolase activity was measured by Epoxy Fluor 7 lysis. […] Statistical significance was calculated by one-way ANOVA with Bonferroni post-test and multiple comparisons against the DMSO control.

T1 sequence (P08659 whole entry): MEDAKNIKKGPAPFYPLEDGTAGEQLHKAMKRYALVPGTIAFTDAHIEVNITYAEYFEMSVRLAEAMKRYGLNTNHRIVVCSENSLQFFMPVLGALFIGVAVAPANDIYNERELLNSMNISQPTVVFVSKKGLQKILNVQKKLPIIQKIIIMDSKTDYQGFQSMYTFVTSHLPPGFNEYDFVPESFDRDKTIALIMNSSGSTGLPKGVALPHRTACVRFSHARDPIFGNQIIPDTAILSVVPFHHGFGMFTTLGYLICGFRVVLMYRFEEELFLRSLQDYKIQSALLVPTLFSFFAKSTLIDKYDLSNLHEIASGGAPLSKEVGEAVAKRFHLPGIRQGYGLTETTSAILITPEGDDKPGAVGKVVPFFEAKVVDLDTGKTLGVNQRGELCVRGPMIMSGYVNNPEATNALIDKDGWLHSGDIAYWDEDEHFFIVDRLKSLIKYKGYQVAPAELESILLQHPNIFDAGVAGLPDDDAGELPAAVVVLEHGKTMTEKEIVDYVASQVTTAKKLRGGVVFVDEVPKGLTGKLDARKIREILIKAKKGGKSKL

Compound	inhibition at 1 µM ([1]; 1 µM)	inhibition of recombinant firefly luciferase ([1]; 10 µM)	induction of Nrf-2 (protein levels / signaling) (Nrf-2)	inhibition of recombinant sEH (sEH)
CCCCCCCCC=C(CCCCCCCC(=O)O)[N+](=O)[O-] [18.9.9, 9-nitro-octadec-9-enoic acid]	> 50%	complete inhibition	strongest effects	–
CCCCCCCC/C=C\CCCCCCCC(=O)O [OA, oleic acid, reference compound]	–	–	did not affect	strong suppressive effect
